Source: PubChem BioAssay AID488825 (NMMLSC, 2010)

Test system: S. cerevisiae CIT2-GFP strain, flow cytometry fluorescence, 3 h
Assay: CIT2-GFP expression modulators in yeast, SAR follow-up, flow cytometry, cherry pick 3, dose response (AID 488825)

EC50: 5.72 µM
SMILES: CNc1nc(N)c([N+](=O)[O-])c(Nc2cccc(Cl)c2)n1
